Source: patent US4988706A (priority 1988, dated 1991)
Structures can show the parent of a compound that is named as a salt. Where two headings read alike, the source gives them in different places.

Legend:
[1] = target: muscarinic receptors (rat cerebral cortex); experiment: Radio ligand binding: displacement of the muscarinic agonist 3H-Oxotremorine-M (3H-OXO-M); design: species or system Hooded Lister rats; conditions: displacement of 2nM 3H-OXO-M, rat cerebral cortex membranes, 2 mM magnesium chloride, 50 mM tris pH 7.7, 37° C., 30 min
[2] = target: muscarinic receptors (rat cerebral cortex); assay type: binding, Hooded Lister rats; conditions: displacement of 0.27 nM 3H-QNB, rat cerebral cortex membranes, 50 mM tris pH 7.7, 37° C., 30 min

SMILES	IC50 [1] [nM]	IC50 [2] [nM]
Nc1noc(C23CCCN(CC2)C3)n1 (racemic) [Example E2, (±) 5-(3-Amino-1,2,4-oxadiazol-5-yl)-1-azabicyclo-[3.2.11octane]	11	2000
FCc1noc(C23CCCN(CC2)C3)n1 (racemic) [Example E1, (±) 5-(3-Fluoromethyl-1,2,4-oxadiazol-5-yl)-1azabicyclo[3.2.l]octane oxalate salt]	6.9	900
FCc1noc(C23CCN(CC2)C3)n1 [Example E5, 4-(3-Fluoromethyl-1,2,4-oxadiazol-5-yl)-1-azabicyclo[2.2.11heptane oxalate salt]	140	19500
Nc1noc(C23CCN(CC2)C3)n1 [Example E4]	32.5	2250
